Experiments:
primary astrocytes [1] = test: Extracellular medium acidification (SNARF5) assay in astrocytes; format: cell-based; details: Mus musculus, Astrocyte; astrocytes in vitro; compounds 10 nM to 30 μM; read-out: Activity (EC50 class, extracellular medium acidification SNARF5)
Procedure: To assess for the effect of the compounds of the invention, those were tested in primary mouse astrocytes and astrocytes differentiated from human-derived induced pluripotent stem cells (iPSCs). Secretion of lactate was measured indirectly through the acidification of extracellular medium using extracellular pH sensor SNARE-5F-(AND-6)-CAR (SNARF5) as described below.
(§1) Primary cultures of cerebrocortical astrocytes were obtained from 1 to 2-day-old OF1 mouse pups (Charles River Laboratories). Briefly, cortices were isolated and minced in small pieces under a dissecting microscope. The cells were incubated for 30 min at 37° C. in a solution containing 20 U/ml papain, 1 mM L-cysteine and 10 kU/ml DNase I. After dissociation, papain activity was stopped by the addition of fetal calf serum (FCS). Single-cell suspension was then obtained by mechanical dissociation, which consisted in cells trituration in a DMEM D7777 medium supplemented with 44 mm NaHCO3, 10 ml/L antibiotic/antimycotic solution and 10% FCS. The cells were seeded at an average density of ˜10′000 cells/cm^2 on poly-D-lysine coated 96- or 12-well culture plates, depending on their use, and grown in DMEM D7777 medium supplemented with 44 mm NaHCO3, 10 ml/L antibiotic/antimycotic solution and 10% FCS at 37° C. in a humidified atmosphere containing 5% CO2/95% air. Culture medium was renewed twice a week. Cells were stimulated and harvested between DIV14 and DIV17, when confluence and cell growth were optimal.
Secretion of lactate was measured indirectly through the acidification of extracellular medium using extracellular pH sensor SNARF-5F-(AND-6)-CAR (SNARF5). After washing cells twice with stimulation medium (DMEM (D5030, Sigma), 1 mM […], and 5 mM Glucose, pH 7.4) at 37° C., cells were stimulated with compounds at a final concentration ranging from 10 nM to 30 μM in 50 μl per well of stimulation medium supplemented with 10 μM of SNARF5 (Life Technologies Corporation). Each compound was tested in two different plates for duplicates. After 30, 60 and 90 min stimulation, fluorescence was read at exc. (excitation) 480 nm/emm. (emission) 580 nm and at exc 480 nm/emm. 630 nm. The ratio of fluorescence between 630 nm and 580 emission values, which is proportional to extracellular pH, was calculated. In each plate, 8 wells were used for negative controls (DMSO 0.1%) and 8 wells were used for positive controls (CCCP 2 μM in DMSO). Results are shown as % of positive control effect (0% and 100% being activities of the Veh and positive control, respectively).

primary astrocytes [2] = test: MTT mitochondrial activity assay in primary astrocytes; format: cell-based, mouse; details: different concentrations, after 1.5 h or 24 h
Procedure: as §1
To monitor mitochondrial activity in astrocytes, which is linked to the metabolic process of glycolysis and production of lactate, astrocytes in 96-well plates were stimulated for 24 h (37° C. 5% CO2/95% air) with the compounds of the invention ranging from 10 nM to 10 μM.
After stimulation, 5 mg/ml thiazol blue tetrazolium bromide (MTT) in D5030 medium complemented with 5 mM D-glucose and 44 mM sodium bicarbonate (pH 7.2) was added to each well, and cells were incubated for 4 h at 37° C. (5% CO2). The medium was then removed and the amount of reduced MTT, i.e formazan, solubilized in DMSO (50 μl/well) was determined using a spectrophotometer (absorbance of 570 nm).
The mitochondrial activity was monitored in MTT colorimetric assay in primary astrocytes treated with Compounds (1), (2), (3), (4) (5), (9) and (10) at different concentrations after 1.5 h (FIG. 2 A, B, D, E, F, C, H, respectively) or 24 h (FIG. 2 H, I, K, L, M, J, N, respectively).

C57Bl/6J wild-type mice [3] = test: Lactate and glucose biosensors, cerebral extracellular levels in freely moving mice; format: in vivo, mouse; details: per os, doses 10 to 30 mg/kg, 3 hours, AUC ratio vs vehicle
Procedure: (§2) All experiments were carried out in strict accordance with the Swiss Federal Guidelines for Animal Experimentation and were approved by the Cantonal Veterinary Office for Animal Experimentation (Canton of Geneva, Switzerland). Adult male C57Bl/6J wild-type mice weighting 18-28 g (8 to 12 weeks of age) were used (Charles River Laboratories). Animals were housed in groups of 3-5 in polypropylene cages (30×40×15 cm) with wire mesh top in a temperature (22±2° C.) and humidity (55±15%) controlled environment on a 12-hour light cycle (07.00-19.00 h lights on), except after surgeries when animal were housed individually. The samples (Vehicle or compounds of the invention) were administered per os (gavage) in a solution made of water supplemented with 0.4% hydroxypropyl methylcellulose (HPMC) Methocel 4 KM (w/v) and 0.25% Tween-20 (v/v), as previously described (Thackaberry et al., 2010, Toxicol Sci., 117(2):485-92). Concentrations of the compounds tested ranged from 3 to 30 mg/kg.
Cerebral extracellular levels of L-lactate and D-glucose were monitored in vivo using lactate and glucose biosensors (Pinnacle Technology), respectively, according to the manufacturer's instructions. Cannulae were surgically implanted in the medial prefrontal cortices (coordinates: −1.0 mm (to bregma), lateral+/−1.0 mm (to mideline), ventral −1.0 mm (to dura))) of isoflurane-anesthetized mice 5 to 7 days prior experiment. After surgery, mice were monitored closely and received analgesic treatment for at least 4 days. After mice had fully recovered from surgery, compounds of the invention of vehicle were administered per os as previously described and cerebral levels of extracellular lactate and glucose were dynamically recorded for 6 hours using biosensors. Mice were administered vehicle alone first, followed 3 hours later by vehicle or Compounds of the Invention. Concentrations of cerebral extracellular lactate and glucose were calculated from the biosensor electric signals using post-calibration values. […] Area Under the Curve (AUC) of lactate and glucose concentration curves were calculated using Graphad Prism and the ratio of AUC after drug over Vehicle administration was calculated. Extracellular concentrations of lactate and glucose were measured in real time in freely moving animals for 3 hours after administration of Vehicle or compounds (1) to (4) at doses ranging from 10 to 30 mg/kg (FIG. 5).

C57Bl/6J wild-type mice [4] = test: 18F-FDG PET glucose uptake in the brain; format: in vivo, mouse; details: gavage, 30 mg/kg, vs Vehicle
Procedure: as §2
^18F-FDG PET Glucose uptake in the brain was measured in vivo using 18F-fluorodeoxyglucose (FDG) with positron emission tomography (PET) Scan. Mice were fasted for 12 hours before the scans PET/CT measurements. Compounds of the invention were administered by gavage, followed by an intraperitoneal injection of 5 MBq of ^18F-FDG in 300 μL of saline. […]

GLUT1-DS transgenic mice = test: Rotarod motor function in GLUT1-DS transgenic mice; format: in vivo, mouse; details: single administration 10 mg/kg, 20 min before rotarod
Description: (§3) Heterozygous transgenic mice on 129/SvJ genetic background in which glucose transporter 1 (GLUT1) has been knocked down were used (GLUT1(+/−)) (Wang et al., 2016, Human Molecular Genetics, 15(7)). GLUT1-deficiency syndrome (GLUT1-DS) is a prototypic hypometabolic diseases caused by the mutation of GLUT1 and decreased levels of glucose and lactate in the brain (Tang et al., 2019, Annals of Clinical and Translational Neurology 6(9)). Mating colonies were composed of wild-type female mice and GLUT1-DS male mice, or GLUT1-DS female mice and wild-type male mice. F1 pups were genotyped after ear punching at weaning using PCR to determine genotype. Mice of 2 to 3 months of age were used.
Motor function was measured in wild-type (WT) and GLUT 1-DS transgenic mice in the rotarod after single administration of Veh. or compound (1) or (2) (10 mg/kg) 20 min before rotarod. Rotarod testing consisted in placing the mouse on an accelerating rotating rod (4 to 40 r.p.m.) during a maximum of 300 seconds. 3 consecutive sessions with 15 min apart were performed. Latency for the mouse to fall from the rod was recorded and the maximal latency over the 3 trials was used as a measure of motor function.

[5] = test system: Wild-type (WT) and GLUT1-DS transgenic mice; test: Grip strength test in WT and GLUT1-DS transgenic mice; format: in vivo, mouse; details: 10 mg/kg, after rotarod session
Description: as §3
Motor strength was measured on the grip strength test (Bioseb) after rotarod session. Wild-type (WT) and GLUT1-DS transgenic mice were placed with 4 paws on the grid and maximal grip strength was recorded over 2 sessions with 5 minutes apart. Maximal grip strength over the 2 sessions was recorded.

SMILES | EC50 (primary astrocytes [1]) [nM] | mitochondrial activity (MTT colorimetric assay) (primary astrocytes [2]) | extracellular glucose levels in the brain (C57Bl/6J wild-type mice [3]) | extracellular lactate levels in the brain (C57Bl/6J wild-type mice [3]) | glucose uptake in the brain (18F-FDG in the whole brain) (C57Bl/6J wild-type mice [4]) | rotarod performance (latency to fall) (GLUT1-DS transgenic mice) | muscle strength (grip strength) [5]
COc1cc2ccnc(Nc3ccc(S(C)(=O)=O)cc3)c2cc1O [Compound 3, 6-methoxy-1-(4-methylsulfonylanilino)isoquinolin-7-ol] | < 1000 | none of the selected compounds had direct effect on mitochondrial activity | significantly increases extracellular glucose levels | significantly increases extracellular lactate levels | – | – | –
COc1cc2ccnc(Cc3ccc(N4CCCC4=O)cc3)c2cc1OC [Compound 1, 1-[4-[(6,7-dimethoxy-1-isoquinolyl)methyl]phenyl]pyrrolidin-2-one] | < 1000 | none of the selected compounds had direct effect on mitochondrial activity | significantly increases extracellular glucose levels | significantly increases extracellular lactate levels | increases glucose uptake in the brain | increased rotarod performance | did not lead to any difference on muscle strength
COc1cc2c(Nc3ccc(S(C)(=O)=O)cc3)nccc2cc1O [Compound 4, 7-methoxy-1-(4-methylsulfonylanilino)isoquinolin-6-ol] | < 1000 | none of the selected compounds had direct effect on mitochondrial activity | significantly increases extracellular glucose levels | significantly increases extracellular lactate levels | – | – | –
